Measurements taken from US9096560B2, “5-heterocyclylalkyl-3-hydroxy-2-phenylcyclopent-2-enones as herbicides” (Syngenta Limited, priority 2008, dated 2015).

What was measured:
Format in all cases: in vivo
[1] = tested on: Echinochloa crus-galli (ECHCG); assay: Example B post-emergence herbicidal test, ECHCG; settings: Echinochloa crus-galli, 312 h, rate 250 g/ha, evaluated after 13 days, scale 0-100, read-out: Post-emergence activity ECHCG (100=total damage to plant; 0=no damage to plant)
Outline: (§1)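 Plants grown 8 days in glasshouse (24/16 °C day/night, 14 h light, 65% humidity), then sprayed with aqueous solution from acetone/water (50:50) formulation with 0.5% Tween 20. Damage scored 13 days later on a 0–100 scale (100 = total damage).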

[2] = tested on: Alopecurus myosuroides (ALOMY); assay: Example B post-emergence herbicidal test, ALOMY; settings: Alopecurus myosuroides, 312 h, rate 250 g/ha, evaluated after 13 days, scale 0-100, read-out: Post-emergence activity ALOMY (100=total damage to plant; 0=no damage to plant)
Outline: as §1

[3] = tested on: Winter Wheat variety 'Hereward' seed treated with cloquintocet mexyl; assay: Example C crop damage test on Winter Wheat seed treated with safener cloquintocet mexyl, post-emergence; settings: rate 250 g/ha, seed treated with cloquintocet mexyl 0.5 grams per kilogram of dry seed, evaluated after 13 days
Description: Seeds of the Winter Wheat variety ‘Hereward’ were seed treated with a wettable powder formulation of the cereal herbicide safener, cloquintocet mexyl, at a rate of 0.5 grams per kilogram of dry seed prior to the initiation of glasshouse testing. One seed was sown per 1.5 inch plastic pot into a sandy loam soil at a depth of 1 cm, 8 days prior to application of the test compounds and was watered and grown under controlled conditions in a glasshouse (at 24/16° C., day/night; 14 hours light; 65% humidity). The plants were sprayed Post-emergence with an aqueous spray solution derived from the formulation of the technical active ingredient in acetone/water (50:50) solution containing 0.5% Tween 20 (polyoxyethelyene sorbitan monolaurate, CAS RN 9005-64-5). The test plants were then grown in a glasshouse under controlled conditions in a glasshouse (at 24/16° C., day/night; 14 hours light; 65% humidity) and watered twice daily. After 13 days for pre and post-emergence, the test was evaluated (100=total damage to plant; 0=no damage to plant).

Setaria faberi (SETFA) = assay: Example A post-emergence herbicidal test, SETFA; settings: rate 250 g/ha, evaluated 14 or 15 days after spraying
Description: (§2) Seeds of a variety of test species were sown in standard soil in pots. After cultivation for one day (pre-emergence) or after 10 days cultivation (post-emergence) under controlled conditions in a glasshouse, the plants were sprayed with an aqueous spray solution derived from the formulation of the technical active ingredient in 0.6 ml acetone and 45 ml formulation solution containing 10.6% Emulsogen EL (Registry number 61791-12-6), 42.2% N-methylpyrrolidone, 42.2% dipropylene glycol monomethyl ether (Registry number 34590-94-8) and 0.2% X-77 (Registry number 11097-66-8). The test plants were then grown in a greenhouse under optimum conditions until, 14 or 15 days later for post-emergence and 19 or 20 days for pre-emergence, the test was evaluated (100=total damage to plant; 0=no damage to plant). Alopecurus myosuroides (ALOMY), Avena fatua (AVEFA), Lolium perenne (LOLPE), Setaria faberi (SETFA), Digitaria sanguinalis (DIGSA), Echinochloa crus-galli (ECHCG) Post-Emergence Activity

[4] = tested on: Echinochloa crus-galli (ECHCG); assay: Example B pre-emergence herbicidal test, ECHCG; settings: Echinochloa crus-galli, 312 h, rate 250 g/ha, evaluated after 13 days, 100=total damage to plant, 0=no damage to plant
Outline: (§3)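 After sowing in standard soil, pots spent a day in the glasshouse (24/16° C, 14 h photoperiod, 65% humidity) before spraying with compound in acetone/water 50:50 with 0.5% Tween 20. Watering followed twice a day, and plants were evaluated 13 days on, with 100 meaning complete damage.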

[5] = tested on: Digitaria sanguinalis (DIGSA); assay: Example A post-emergence herbicidal test, DIGSA; settings: rate 250 g/ha, evaluated 14 or 15 days after spraying
Description: as §2

[6] = tested on: Alopecurus myosuroides (ALOMY); assay: Example B pre-emergence herbicidal test, ALOMY; settings: Alopecurus myosuroides, 312 h, rate 250 g/ha, evaluated after 13 days, 100=total damage to plant, 0=no damage to plant
Outline: as §3

Lolium perenne (LOLPE) [7] = assay: Example B pre-emergence herbicidal test, LOLPE; settings: Lolium perenne, 312 h, rate 250 g/ha, evaluated after 13 days, 100=total damage to plant, 0=no damage to plant
Outline: as §3

[8] = tested on: Winter Wheat variety 'Hereward'; assay: Example C crop damage test on Winter Wheat, post-emergence, no safener; settings: Triticum aestivum, 312 h, rate 250 g/ha, evaluated after 13 days, read-out: Winter Wheat (Hereward) damage (100=total damage to plant; 0=no damage to plant)
Description: Seeds of the Winter Wheat variety ‘Hereward’ were sown in standard soil in pots. After 8 days cultivation under controlled conditions in a glasshouse (at 24/16° C., day/night; 14 hours light; 65% humidity), the plants were sprayed with an aqueous spray solution derived from the formulation of the technical active ingredient in acetone/water (50:50) solution containing 0.5% Tween 20 (polyoxyethelyene sorbitan monolaurate, CAS RN 9005-64-5). The test plants were then grown in a glasshouse under controlled conditions in a glasshouse (at 24/16° C., day/night; 14 hours light; 65% humidity) and watered twice daily. After 13 days for pre and post-emergence, the test was evaluated (100=total damage to plant; 0=no damage to plant).

Avena fatua (AVEFA) [9] = assay: Example B pre-emergence herbicidal test, AVEFA; settings: Avena fatua, 312 h, rate 250 g/ha, evaluated after 13 days, 100=total damage to plant, 0=no damage to plant
Outline: as §3

Avena fatua (AVEFA) [10] = assay: Example A post-emergence herbicidal test, AVEFA; settings: rate 250 g/ha, evaluated 14 or 15 days after spraying
Description: as §2

Lolium perenne (LOLPE) [11] = assay: Example B post-emergence herbicidal test, LOLPE; settings: Lolium perenne, 312 h, rate 250 g/ha, evaluated after 13 days, scale 0-100, read-out: Post-emergence activity LOLPE (100=total damage to plant; 0=no damage to plant)
Outline: as §1

[12] = tested on: Echinochloa crus-galli (ECHCG); assay: Example A post-emergence herbicidal test, ECHCG; settings: rate 250 g/ha, evaluated 14 or 15 days after spraying
Description: as §2

[13] = tested on: Alopecurus myosuroides (ALOMY); assay: Example A post-emergence herbicidal test, ALOMY; settings: rate 250 g/ha, evaluated 14 or 15 days after spraying
Description: as §2

Lolium perenne (LOLPE) [14] = assay: Example A post-emergence herbicidal test, LOLPE; settings: rate 250 g/ha, evaluated 14 or 15 days after spraying
Description: as §2

Avena fatua (AVEFA) [15] = assay: Example B post-emergence herbicidal test, AVEFA; settings: Avena fatua, 312 h, rate 250 g/ha, evaluated after 13 days, scale 0-100, read-out: Post-emergence activity AVEFA (100=total damage to plant; 0=no damage to plant)
Outline: as §1

| SMILES | pest or weed control at 250 g/ha [1] | pest or weed control at 250 g/ha [2] | Winter Wheat (Hereward) + cloquintocet mexyl damage (100=total damage to plant; 0=no damage to plant) [3] | Post-Emergence Activity SETFA (100=total damage to plant; 0=no damage to plant) (Setaria faberi (SETFA)) | pest or weed control at 250 g/ha [4] | Post-Emergence Activity DIGSA (100=total damage to plant; 0=no damage to plant) [5] | pest or weed control at 250 g/ha [6] | pest or weed control at 250 g/ha (Lolium perenne (LOLPE) [7]) | crop damage to winter wheat at 250 g/ha [8] | pest or weed control at 250 g/ha (Avena fatua (AVEFA) [9]) | Post-Emergence Activity AVEFA (100=total damage to plant; 0=no damage to plant) (Avena fatua (AVEFA) [10]) | pest or weed control at 250 g/ha (Lolium perenne (LOLPE) [11]) | Post-Emergence Activity ECHCG (100=total damage to plant; 0=no damage to plant) [12] | Post-Emergence Activity ALOMY (100=total damage to plant; 0=no damage to plant) [13] | Post-Emergence Activity LOLPE (100=total damage to plant; 0=no damage to plant) (Lolium perenne (LOLPE) [14]) | pest or weed control at 250 g/ha (Avena fatua (AVEFA) [15]) |
| --- | --- | --- | --- | --- | --- | --- | --- | --- | --- | --- | --- | --- | --- | --- | --- | --- |
| Cc1cc(C)c(C2=C(OC(=O)C(C)(C)C)CC(CC3CCOCC3)C2=O)c(C)c1 (stereo not shown) [Compound P5] | 100% | 100% | 30 | 80 | 100% | 70 | 100% | 100% | 60% | 80% | 100 | 100% | 100 | 100 | 100 | 90% |
| Cc1cc(C)c(C2C(=O)CC(CC3CCOCC3)C2=O)c(C)c1 (stereo not shown) [Compound T4] | 100% | 100% | 40 | 90 | 100% | 90 | 100% | 100% | 70% | 90% | 90 | 100% | 100 | 100 | 100 | 100% |
| Cc1cc(C)c(C2C(=O)CC(CC3CCOC3)C2=O)c(C)c1 (stereo not shown) [Compound T5] | 100% | 100% | 20 | 30 | 100% | 50 | 100% | 100% | 80% | 80% | 80 | 100% | 80 | 100 | 100 | 90% |
| Cc1cc(C)c(C2C(=O)CC(CC3CCN(C(=O)c4ccc(F)cc4)CC3)C2=O)c(C)c1 (stereo not shown) [Compound T75] | 90% | 90% | 50 | – | 70% | – | 30% | 80% | 60% | 70% | – | 100% | – | – | – | 100% |
| CCCC(=O)N1CCC(CC2CC(=O)C(c3c(C)cc(C)cc3C)C2=O)CC1 (stereo not shown) [Compound T84] | 90% | 90% | 60 | – | 60% | – | 50% | 90% | 70% | 50% | – | 100% | – | – | – | 100% |
| Cc1cc(C)c(C2C(=O)CC(CC3CCN(C(=O)C4CC4)CC3)C2=O)c(C)c1 (stereo not shown) [Compound T88] | 90% | 90% | 50 | – | 80% | – | 90% | 100% | 70% | 90% | – | 90% | – | – | – | 100% |
| COC(=O)N1CCC(CC2CC(=O)C(c3c(C)cc(C)cc3C)C2=O)CC1 (stereo not shown) [Compound T98] | 90% | 100% | 60 | – | 90% | – | 70% | 90% | 90% | 80% | – | 100% | – | – | – | 100% |
